Measured values from patent publication US20170190671A1, “BIS(ARYL)CATECHOL DERIVATIVES AS HERBICIDES” (E I DU PONT DE NEMOURS AND COMPANY, priority 2014, published 2017).

Columns and labels:
Type in all cases: in vivo
[1] = tested on: galium (catchweed bedstraw, Galium aparine); experiment: Test C preemergence; settings: Galium, pre-emergence, 336 h, scale 0 to 100, read-out: Plant response rating, Galium
In short: (§1)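 Greenhouse test; preemergence to seeds in loam/sand soil, or postemergence spray to 2-18 cm, 1- to 4-leaf plants in peat/vermiculite medium; compound in non-phytotoxic solvent plus surfactant. Visual rating vs controls at 13-15 d, 0 = no effect, 100 = complete control.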

[2] = tested on: morningglory (Ipomoea coccinea); experiment: Test C preemergence; settings: Ipomoea, pre-emergence, 336 h, scale 0 to 100, read-out: Plant response rating, Morningglory
In short: as §1

[3] = tested on: oilseed rape (Brassica napus); experiment: Test C preemergence; settings: Brassica napus, pre-emergence, scale 0 to 100, read-out: Plant response rating, Oilseed Rape
In short: as §1

[4] = tested on: waterhemp (common waterhemp, Amaranthus rudis); experiment: Test C preemergence; settings: Amaranthus tuberculatus, pre-emergence, scale 0 to 100, read-out: Plant response rating, Waterhemp
In short: as §1

[5] = tested on: Italian ryegrass (Lolium multiflorum); experiment: Test C postemergence; settings: Lolium multiflorum, post-emergence, 336 h, Postemergence, scale 0 to 100, read-out: Plant response rating, Ryegrass, Italian
In short: as §1

[6] = tested on: barnyardgrass (Echinochloa crus-galli); experiment: Test C postemergence; settings: Echinochloa crus-galli, post-emergence, Postemergence, scale 0 to 100, read-out: Plant response rating, Barnyardgrass
In short: as §1

[7] = tested on: blackgrass (Alopecurus myosuroides); experiment: Test C postemergence; settings: Alopecurus myosuroides, post-emergence, 336 h, Postemergence, scale 0 to 100, read-out: Plant response rating, Blackgrass
In short: as §1

[8] = tested on: chickweed (common chickweed, Stellaria media); experiment: Test C postemergence; settings: Stellaria media, post-emergence, Postemergence, scale 0 to 100, read-out: Plant response rating, Chickweed
In short: as §1

[9] = tested on: corn (Zea mays); experiment: Test C postemergence; settings: Zea mays, post-emergence, 336 h, Postemergence, scale 0 to 100
In short: as §1

[10] = tested on: johnsongrass (Sorghum halepense); experiment: Test C postemergence; settings: Sorghum halepense, post-emergence, 336 h, Postemergence, scale 0 to 100, read-out: Plant response rating, Johnsongrass
In short: as §1

[11] = tested on: kochia (Kochia scoparia); experiment: Test C postemergence; settings: Bassia scoparia, post-emergence, Postemergence, scale 0 to 100, read-out: Plant response rating, Kochia
In short: as §1

[12] = tested on: lambsquarters (Chenopodium album); experiment: Test C postemergence; settings: Chenopodium album, post-emergence, 336 h, Postemergence, scale 0 to 100, read-out: Plant response rating, Lambsquarters
In short: as §1

[13] = tested on: large (Lg) crabgrass (Digitaria sanguinalis); experiment: Test C postemergence; settings: Digitaria sanguinalis, post-emergence, 336 h, Postemergence, scale 0 to 100, read-out: Plant response rating, Crabgrass, Large
In short: as §1

[14] = tested on: oilseed rape (Brassica napus); experiment: Test C postemergence; settings: Brassica napus, post-emergence, Postemergence, scale 0 to 100, read-out: Plant response rating, Oilseed Rape
In short: as §1

[15] = tested on: pigweed (Amaranthus retroflexus); experiment: Test C postemergence; settings: Amaranthus retroflexus, post-emergence, 336 h, Postemergence, scale 0 to 100, read-out: Plant response rating, Pigweed
In short: as §1

[16] = tested on: ragweed (common ragweed, Ambrosia elatior); experiment: Test C postemergence; settings: Ambrosia artemisiifolia, post-emergence, 336 h, Postemergence, scale 0 to 100, read-out: Plant response rating, Ragweed
In short: as §1

[17] = tested on: soybean (Glycine max); experiment: Test C postemergence; settings: Glycine max, post-emergence, Postemergence, scale 0 to 100, read-out: Plant response rating, Soybean
In short: as §1

[18] = tested on: velvetleaf (Abutilon theophrasti); experiment: Test C postemergence; settings: Abutilon theophrasti, post-emergence, Postemergence, scale 0 to 100, read-out: Plant response rating, Velvetleaf
In short: as §1

[19] = tested on: waterhemp (common waterhemp, Amaranthus rudis); experiment: Test C postemergence; settings: Amaranthus tuberculatus, post-emergence, Postemergence, scale 0 to 100, read-out: Plant response rating, Waterhemp
In short: as §1

[20] = tested on: wild oat (Avena fatua); experiment: Test C postemergence; settings: Avena fatua, post-emergence, Postemergence, scale 0 to 100, read-out: Plant response rating, Oat, Wild
In short: as §1

[21] = tested on: winter wheat (Triticum aestivum); experiment: Test C postemergence; settings: Triticum aestivum, post-emergence, 336 h, Postemergence, scale 0 to 100, read-out: Plant response rating, Wheat
In short: as §1

[22] = tested on: yellow nutsedge (Cyperus esculentus); experiment: Test C postemergence; settings: Cyperus, post-emergence, 336 h, Postemergence, scale 0 to 100, read-out: Plant response rating, Nutsedge, Yellow
In short: as §1

Fc1cccc(Oc2ncc(Cl)cn2)c1Oc1ncc(Cl)cn1 [Compound 21, 2,2′-[[3-fluoro-1,2-phenylene]bis(oxy)]bis[5-chloropyrimidine]]
pest or weed control at 31 g/ha ([1]; 31 g ai/ha, preemergence): 100% | pest or weed control at 62 g/ha ([1]; 62 g ai/ha, preemergence): 100% | pest or weed control at 125 g/ha ([1]; 125 g ai/ha, preemergence): 100% | pest or weed control at 16 g/ha ([1]; Preemergence, 16 g ai/ha): 98% | pest or weed control at 31 g/ha ([2]; 31 g ai/ha, preemergence): 80% | pest or weed control at 62 g/ha ([2]; 62 g ai/ha, preemergence): 85% | pest or weed control at 125 g/ha ([2]; 125 g ai/ha, preemergence): 98% | pest or weed control at 16 g/ha ([2]; Preemergence, 16 g ai/ha): 70% | plant injury at 31 g/ha ([3]; 31 g ai/ha, preemergence): 100% | plant injury at 62 g/ha ([3]; 62 g ai/ha, preemergence): 100% | plant injury at 125 g/ha ([3]; 125 g ai/ha, preemergence): 100% | plant injury at 16 g/ha ([3]; Preemergence, 16 g ai/ha): 98% | pest or weed control at 31 g/ha ([4]; 31 g ai/ha, preemergence): 100% | pest or weed control at 62 g/ha ([4]; 62 g ai/ha, preemergence): 100% | pest or weed control at 125 g/ha ([4]; 125 g ai/ha, preemergence): 100% | pest or weed control at 16 g/ha ([4]; Preemergence, 16 g ai/ha): 100% | pest or weed control at 31 g/ha ([5]; 31 g ai/ha): 0% | pest or weed control at 62 g/ha ([5]; 62 g ai/ha): 0% | pest or weed control at 125 g/ha ([5]; 125 g ai/ha): 25% | pest or weed control at 16 g/ha ([6]; 16 g ai/ha): 5% | pest or weed control at 31 g/ha ([6]; 31 g ai/ha): 5% | pest or weed control at 62 g/ha ([6]; 62 g ai/ha): 5% | pest or weed control at 125 g/ha ([6]; 125 g ai/ha): 5% | pest or weed control at 16 g/ha ([7]; 16 g ai/ha): 5% | pest or weed control at 31 g/ha ([7]; 31 g ai/ha): 5% | pest or weed control at 62 g/ha ([7]; 62 g ai/ha): 20% | pest or weed control at 125 g/ha ([7]; 125 g ai/ha): 70% | pest or weed control at 16 g/ha ([8]; 16 g ai/ha): 50% | pest or weed control at 31 g/ha ([8]; 31 g ai/ha): 50% | pest or weed control at 62 g/ha ([8]; 62 g ai/ha): 60% | pest or weed control at 125 g/ha ([8]; 125 g ai/ha): 100% | Corn plant response rating (crop injury, 0 = no effect, 100 = complete kill) at 16 g/ha ([9]; 16 g ai/ha): 0% | Corn plant response rating (crop injury, 0 = no effect, 100 = complete kill) at 31 g/ha ([9]; 31 g ai/ha): 5% | Corn plant response rating (crop injury, 0 = no effect, 100 = complete kill) at 62 g/ha ([9]; 62 g ai/ha): 5% | Corn plant response rating (crop injury, 0 = no effect, 100 = complete kill) at 125 g/ha ([9]; 125 g ai/ha): 5% | pest or weed control at 16 g/ha ([10]; 16 g ai/ha): 5% | pest or weed control at 31 g/ha ([10]; 31 g ai/ha): 5% | pest or weed control at 62 g/ha ([10]; 62 g ai/ha): 5% | pest or weed control at 125 g/ha ([10]; 125 g ai/ha): 5% | pest or weed control at 16 g/ha ([11]; 16 g ai/ha): 85% | pest or weed control at 31 g/ha ([11]; 31 g ai/ha): 90% | pest or weed control at 62 g/ha ([11]; 62 g ai/ha): 90% | pest or weed control at 125 g/ha ([11]; 125 g ai/ha): 98% | pest or weed control at 16 g/ha ([12]; 16 g ai/ha): 15% | pest or weed control at 31 g/ha ([12]; 31 g ai/ha): 70% | pest or weed control at 62 g/ha ([12]; 62 g ai/ha): 98% | pest or weed control at 125 g/ha ([12]; 125 g ai/ha): 90% | pest or weed control at 16 g/ha ([13]; 16 g ai/ha): 5% | pest or weed control at 31 g/ha ([13]; 31 g ai/ha): 5% | pest or weed control at 62 g/ha ([13]; 62 g ai/ha): 5% | pest or weed control at 125 g/ha ([13]; 125 g ai/ha): 15% | plant injury at 31 g/ha ([14]; 31 g ai/ha): 55% | plant injury at 62 g/ha ([14]; 62 g ai/ha): 60% | plant injury at 125 g/ha ([14]; 125 g ai/ha): 80% | pest or weed control at 31 g/ha ([15]; 31 g ai/ha): 75% | pest or weed control at 62 g/ha ([15]; 62 g ai/ha): 85% | pest or weed control at 125 g/ha ([15]; 125 g ai/ha): 95% | pest or weed control at 31 g/ha ([16]; 31 g ai/ha): 30% | pest or weed control at 62 g/ha ([16]; 62 g ai/ha): 60% | pest or weed control at 125 g/ha ([16]; 125 g ai/ha): 95% | plant injury at 31 g/ha ([17]; 31 g ai/ha): 65% | plant injury at 62 g/ha ([17]; 62 g ai/ha): 95% | plant injury at 125 g/ha ([17]; 125 g ai/ha): 95% | pest or weed control at 31 g/ha ([18]; 31 g ai/ha): 50% | pest or weed control at 62 g/ha ([18]; 62 g ai/ha): 65% | pest or weed control at 125 g/ha ([18]; 125 g ai/ha): 70% | pest or weed control at 31 g/ha ([19]; 31 g ai/ha): 60% | pest or weed control at 62 g/ha ([19]; 62 g ai/ha): 50% | pest or weed control at 125 g/ha ([19]; 125 g ai/ha): 65% | pest or weed control at 31 g/ha ([20]; 31 g ai/ha): 0% | pest or weed control at 62 g/ha ([20]; 62 g ai/ha): 0% | pest or weed control at 125 g/ha ([20]; 125 g ai/ha): 40% | plant injury at 31 g/ha ([21]; 31 g ai/ha): 0% | plant injury at 62 g/ha ([21]; 62 g ai/ha): 0% | plant injury at 125 g/ha ([21]; 125 g ai/ha): 5% | pest or weed control at 31 g/ha ([22]; 31 g ai/ha): 5% | pest or weed control at 62 g/ha ([22]; 62 g ai/ha): 5% | pest or weed control at 125 g/ha ([22]; 125 g ai/ha): 5%
